molecular target: T1, SHP2 protein (Homo sapiens, UniProt Q06124); assay: Degradation activity on SHP2 protein in MIA Paca-2 cells (Western blot, DC50); assay type: cell-based; set-up: endogenous in cells; host or cells: MIA Paca-2 cells; settings: read-out: Degradation activity for differenct cell lines MIA Paca-2 (DC50)
T1 sequence (Q06124 1-593): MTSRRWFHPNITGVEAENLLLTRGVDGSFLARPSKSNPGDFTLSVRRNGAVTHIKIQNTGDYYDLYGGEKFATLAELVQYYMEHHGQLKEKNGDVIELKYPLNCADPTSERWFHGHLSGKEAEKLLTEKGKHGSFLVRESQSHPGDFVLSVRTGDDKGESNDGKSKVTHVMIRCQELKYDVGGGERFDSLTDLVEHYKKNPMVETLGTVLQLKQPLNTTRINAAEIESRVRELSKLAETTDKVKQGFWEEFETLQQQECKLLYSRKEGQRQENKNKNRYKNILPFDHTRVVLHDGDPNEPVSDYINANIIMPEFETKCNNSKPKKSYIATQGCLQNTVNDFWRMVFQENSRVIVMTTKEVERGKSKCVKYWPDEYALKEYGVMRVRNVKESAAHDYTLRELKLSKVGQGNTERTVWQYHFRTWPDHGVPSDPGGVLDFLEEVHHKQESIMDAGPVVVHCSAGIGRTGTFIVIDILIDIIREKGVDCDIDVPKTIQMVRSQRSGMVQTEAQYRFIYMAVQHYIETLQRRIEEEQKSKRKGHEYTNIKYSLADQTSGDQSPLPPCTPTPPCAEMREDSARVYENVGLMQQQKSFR
Method: (1) MV-411 cells were cultured in the cell culture medium, and then well-growing cells were selected and inoculated in a 12-well plate, with 1 mL/well and 1×10^6 cells/well. The plate was incubated overnight in a 5% CO2 cell incubator at 37° C.
(2) 10 mM storage solution of each drug was prepared using dimethylsulfoxide (DMSO). The stock solution was diluted gradually with DMSO before use, and then 1 μL of the compound solution was added to the cell culture well (to ensure that the DMSO concentration in the culture system was […]), so that the final drug concentration is 100 nM, 10 nM, 3 nM, 1 nM, 0.3 nM, and 0.1 nM. Two wells were set for each concentration. The plate was gently shaken and mixed. Additionally, negative control wells (containing an equal amount of DMSO) and positive control wells were included.
(3) After 24 hours of cultivation, the cells were lysed using RIPA cell lysate, and the proteins were extracted. The protein concentration was measured using a BCA assay kit. 5× concentrated protein buffer was loaded, heated at 100° C. for 5 min, and then the sample was stored at −20° C.
(4) For each well, 30 μg of protein was loaded to polyacrylamide gel for electrophoresis.
(5) The protein was transferred from polyacrylamide gel to PVDF membrane, and sealed at room temperature with 5% skimmed milk for 1 h, which was then incubated with the primary antibodies (Anti-SHP2 rabbit mAb and Anti-GAPDH rabbit mAb) at 4° C. overnight. The membrane was washed three times with TBST solution, 10 minutes for each time. After that, the membrane was incubated with the secondary antibodies (horseradish peroxidase labeled goat anti-rabbit IgG) at room temperature for 2 h, and then washed three times with TBST solution, 10 minutes for each time, followed by exposure.
(6) The images were analyzed with Image J grayscale, and the degradation ratio of protein bands in the test group was calculated, based on the negative control group (DMSO) (100%).
(7) Using the Dose-response-inhibition equation in the data processing software GraphPad Prism 8, the DC50 value was obtained (which represents the drug concentration corresponding to 50% degradation of the target protein).
Using similar methods and different cell lines, the degradation activity of the compound according to the present invention on SHP2 protein of different cell lines was tested under suitable culture conditions.

Compound | DC50 [nM]
CC1(N)CCN(c2cnc(Sc3cccc(NC(=O)C4CCC(N5CC=C(c6ccc(C(=O)NCc7ccc8c(c7)CN(C7CCC(=O)NC7=O)C8=O)nc6)CC5)CC4)c3)cn2)CC1 (single isomer, unassigned) [Compound 300] | > 1000
CC1(N)CCN(c2cnc(Sc3cccc(NC(=O)C4CCC(N5CC=C(c6ccc(C(=O)NCc7ccc8c(c7)CN(C7CCC(=O)NC7=O)C8=O)nc6)CC5)CC4)c3)cn2)CC1 (single isomer, unassigned) [Compound 301] | > 1000
CC1(N)CCN(c2cnc(Sc3cccc(NC(=O)C4CC45CCC(N4CC=C(c6ccc(C(=O)NCc7ccc8c(c7)CN(C7CCC(=O)NC7=O)C8=O)nc6)CC4)CC5)c3)cn2)CC1 (single isomer, unassigned) [Compound 314] | > 1000
CC1(N)CCN(c2cnc(Sc3cccc(NC(=O)C4CC45CCC(N4CC=C(c6ccc(C(=O)NCc7ccc8c(c7)CN(C7CCC(=O)NC7=O)C8=O)nc6)CC4)CC5)c3)cn2)CC1 (single isomer, unassigned) [Compound 315] | > 1000
CC1(N)CCN(c2cnc(Sc3cccc(NC(=O)C4CC45CCC(N4CC=C(c6ccc(C(=O)Nc7ccc8c(c7)CN(C7CCC(=O)NC7=O)C8=O)nc6)CC4)CC5)c3)cn2)CC1 (single isomer, unassigned) [Compound 316] | > 1000
CC1(N)CCN(c2cnc(Sc3cccc(NC(=O)C4CC45CCC(N4CC=C(c6ccc(C(=O)NCc7ccc8c(c7)CN(C7CCC(=O)NC7=O)C8=O)nn6)CC4)CC5)c3)cn2)CC1 (single isomer, unassigned) [Compound 318] | > 1000
CC1(N)CCN(c2cnc(Sc3cccc(NC(=O)C4CC45CCC(N4CC=C(c6ccc(C(=O)NCc7ccc8c(c7)CN(C7CCC(=O)NC7=O)C8=O)nn6)CC4)CC5)c3)cn2)CC1 (single isomer, unassigned) [Compound 319] | > 1000
CC1(N)CCN(c2cnc(Sc3cccc(NC(=O)C4CC45CCC(N4CC=C(c6ccc(C(=O)Nc7ccc8c(c7)CN(C7CCC(=O)NC7=O)C8=O)nn6)CC4)CC5)c3)cn2)CC1 (single isomer, unassigned) [Compound 320] | > 1000
CC1(N)CCN(c2cnc(Sc3cccc(NC(=O)C4CC45CCC(N4CC=C(c6ccc(C(=O)Nc7ccc8c(c7)CN(C7CCC(=O)NC7=O)C8=O)nn6)CC4)CC5)c3)cn2)CC1 (single isomer, unassigned) [Compound 321] | < 100
CC1(N)CCN(c2cnc(Sc3cccc(NC(=O)C4CC45CCC(N4CC=C(c6ccc(C(=O)N7CCN(c8ccc9c(c8)CN(C8CCC(=O)NC8=O)C9=O)CC7)nc6)CC4)CC5)c3)cn2)CC1 (single isomer, unassigned) [Compound 322] | > 1000
CC1(N)CCN(c2cnc(Sc3cccc(NC(=O)C4CC45CCC(N4CC=C(c6ccc(C(=O)N7CCN(c8ccc9c(c8)CN(C8CCC(=O)NC8=O)C9=O)CC7)nc6)CC4)CC5)c3)cn2)CC1 (single isomer, unassigned) [Compound 323] | > 1000
O=C1CCC(N2Cc3cc(CNC(=O)c4ccc(N5CCC6(CN(CCCCCCC(=O)Nc7cccc(Sc8cnc(N9CCCCC9)cn8)c7)C6)C5)nn4)ccc3C2=O)C(=O)N1 (stereo not shown) [Compound 212] | > 1000
CC1(N)CCN(c2cnc(Sc3cccc(NC(=O)CCCCCOc4ccc(-c5ccc(C(=O)NCc6ccc7c(c6)CN(C6CCC(=O)NC6=O)C7=O)nc5)cc4)c3)cn2)CC1 (stereo not shown) [Compound 213] | > 1000
CC1(N)CCN(c2cnc(Sc3cccc(NC(=O)CCN4CC5(CCC(OCCNc6ccc(C(=O)NCc7ccc8c(c7)CN(C7CCC(=O)NC7=O)C8=O)nn6)CC5)C4)c3)cn2)CC1 (stereo not shown) [Compound 214] | > 1000
CC1(N)CCN(c2cnc(Sc3cccc(NC(=O)CCCCCCN4CCC5(CC4)CC(=O)N(CC(=O)NCc4ccc6c(c4)CN(C4CCC(=O)NC4=O)C6=O)C5)c3)cn2)CC1 (stereo not shown) [Compound 215] | > 1000
C[C@@H]1OCC2(CCN(c3cnc(Sc4cccc(NCc5ccc(CN6CCN(c7ccc(C(=O)NCc8ccc9c(c8)CN(C8CCC(=O)NC8=O)C9=O)nn7)CC6)cc5)c4)cn3)CC2)[C@@H]1N (stereo partly shown) [Compound 253] | > 1000
CC1(N)CCN(c2cnc(Sc3cccc(NCc4ccc(CN5CCN(c6ccc7c(c6)CN(C6CCC(=O)NC6=O)C7=O)CC5)cc4)c3)cn2)CC1 (stereo not shown) [Compound 254] | > 1000

Compound | DC50 [nM]
C[C@@H]1OCC2(CCN(c3cnc(Sc4cccc(NCc5ccc(CN6CCN(c7ccc8c(c7)CN(C7CCC(=O)NC7=O)C8=O)CC6)cc5)c4)cn3)CC2)[C@@H]1N (stereo partly shown) [Compound 255] | > 1000
CC1(N)CCN(c2cnc(Sc3cccc(NCC4CCC(N5CCN(c6ccc7c(c6)CN(C6CCC(=O)NC6=O)C7=O)CC5)CC4)c3)cn2)CC1 (stereo not shown) [Compound 256] | > 1000
CC1(N)CCN(c2cnc(Sc3cccc(NCc4ccc(N5CCN(c6ccc(C(=O)NCc7ccc8c(c7)C(=O)N(C7CCC(=O)NC7=O)C8)nn6)CC5)c(F)c4)c3)cn2)CC1 (stereo not shown) [Compound 258] | > 1000
CC1(N)CCN(c2cnc(Sc3cccc(NC(=O)c4ccc(N5CCN(c6ccc(C(=O)NCc7ccc8c(c7)C(=O)N(C7CCC(=O)NC7=O)C8)nn6)CC5)c(F)c4)c3)cn2)CC1 (stereo not shown) [Compound 260] | > 1000
C[C@@H]1OCC2(CCN(c3cnc(Sc4cccc(NC(=O)c5ccc(N6CCN(c7ccc(C(=O)NCc8ccc9c(c8)C(=O)N(C8CCC(=O)NC8=O)C9)nn7)CC6)c(F)c5)c4)cn3)CC2)[C@@H]1N (stereo partly shown) [Compound 261] | < 100
C[C@@H]1OCC2(CCN(c3cnc(Sc4cccc(NC(=O)CCCN5CCN(c6ccc(C(=O)NCc7ccc8c(c7)C(=O)N(C7CCC(=O)NC7=O)C8)nn6)CC5)c4)cn3)CC2)[C@@H]1N (stereo partly shown) [Compound 262] | > 1000
C[C@@H]1OCC2(CCN(c3cnc(Sc4cccc(NC(=O)COc5ccc(N6CCN(c7ccc(C(=O)NCc8ccc9c(c8)CN(C8CCC(=O)NC8=O)C9=O)nn7)CC6)cc5)c4)cn3)CC2)[C@@H]1N (stereo partly shown) [Compound 263] | < 100
CC1(N)CCN(c2cnc(Sc3cccc(NC(=O)COc4ccc(N5CCN(c6ccc(C(=O)NCc7ccc8c(c7)CN(C7CCC(=O)NC7=O)C8=O)nn6)CC5)cc4)c3)cn2)CC1 (stereo not shown) [Compound 265] | < 100
CC1(N)CCN(c2cnc(Sc3cccc(NC(=O)CCCCN4CCC(N5CCN(c6ccc(C(=O)NCc7ccc8c(c7)CN(C7CCC(=O)NC7=O)C8=O)nn6)CC5C(F)(F)F)C4)c3)cn2)CC1 (stereo not shown) [Compound 267] | < 100
CC1(N)CCN(c2cnc(Sc3cccc(NC(=O)C4CC(N5CCN(c6ccc7c(c6)C(=O)N(C6CCC(=O)NC6=O)C7=O)CC5)C4)c3)cn2)CC1 (stereo not shown) [Compound 268] | > 1000
CC1(N)CCN(c2cnc(Sc3cccc(NC(=O)C4CC(N5CCN(c6ccc7c(c6)CN(C6CCC(=O)NC6=O)C7=O)CC5)C4)c3)cn2)CC1 (stereo not shown) [Compound 269] | > 1000
CC1(N)CCN(c2cnc(Sc3cccc(NC(=O)C4CCC(N5CCN(c6ccc7c(c6)C(=O)N(C6CCC(=O)NC6=O)C7=O)CC5)CC4)c3)cn2)CC1 (stereo not shown) [Compound 270] | > 1000
CC1(N)CCN(c2cnc(Sc3cccc(NC(=O)C4CCC(N5CCN(c6ccc7c(c6)CN(C6CCC(=O)NC6=O)C7=O)CC5)CC4)c3)cn2)CC1 (stereo not shown) [Compound 271] | > 1000
CC1(N)CCN(c2cnc(Sc3cccc(NC(=O)C4CC45CCN(c4ccc(CN6CCN(c7ccc8c(c7)CN(C7CCC(=O)NC7=O)C8=O)CC6)cc4F)CC5)c3)cn2)CC1 (stereo not shown) [Compound 272] | > 1000
C[C@@H]1OCC2(CCN(c3cnc(Sc4cccc(NC(=O)C5CC56CCN(c5ccc(CN7CCN(c8ccc9c(c8)CN(C8CCC(=O)NC8=O)C9=O)CC7)cc5F)CC6)c4)cn3)CC2)[C@@H]1N (stereo partly shown) [Compound 273] | > 1000
CC1(N)CCN(c2cnc(Sc3cccc(NC(=O)CCN4CC=C(c5ccc(C(=O)NCc6ccc7c(c6)CN(C6CCC(=O)NC6=O)C7=O)nc5)C(C)(C)C4)c3)cn2)CC1 (stereo not shown) [Compound 274] | > 1000
C[C@@H]1OCC2(CCN(c3cnc(Sc4cccc(NC(=O)CCN5CC=C(c6ccc(C(=O)NCc7ccc8c(c7)CN(C7CCC(=O)NC7=O)C8=O)nc6)C(C)(C)C5)c4)cn3)CC2)[C@@H]1N (stereo partly shown) [Compound 275] | > 1000
